Test results taken from ChEMBL document CHEMBL5465560, “Selectivity Literature for EUbOPEN Chemogenomic Library” (2024).

What was measured:
[1] = biological target: T1, cGMP-dependent protein kinase 1 (Homo sapiens) (UniProt Q13976); conditions: at 10 µM
T1 sequence (whole entry): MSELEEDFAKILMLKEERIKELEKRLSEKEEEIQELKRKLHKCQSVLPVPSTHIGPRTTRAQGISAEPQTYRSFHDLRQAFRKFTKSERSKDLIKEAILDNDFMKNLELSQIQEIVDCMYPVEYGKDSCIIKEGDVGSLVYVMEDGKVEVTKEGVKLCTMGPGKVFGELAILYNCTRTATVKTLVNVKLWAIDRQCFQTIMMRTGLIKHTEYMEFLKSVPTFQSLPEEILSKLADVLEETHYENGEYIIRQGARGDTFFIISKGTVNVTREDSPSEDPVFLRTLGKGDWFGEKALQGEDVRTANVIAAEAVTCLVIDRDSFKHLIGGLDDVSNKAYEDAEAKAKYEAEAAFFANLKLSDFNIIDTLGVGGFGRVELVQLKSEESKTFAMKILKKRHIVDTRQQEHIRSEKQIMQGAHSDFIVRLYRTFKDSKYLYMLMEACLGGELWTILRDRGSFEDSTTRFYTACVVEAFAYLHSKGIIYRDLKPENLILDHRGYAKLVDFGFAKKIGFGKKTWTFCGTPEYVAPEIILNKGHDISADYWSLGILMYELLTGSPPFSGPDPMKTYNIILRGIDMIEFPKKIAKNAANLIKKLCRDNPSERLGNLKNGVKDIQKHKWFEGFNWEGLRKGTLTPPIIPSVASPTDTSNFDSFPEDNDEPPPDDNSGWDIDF

D(3) dopamine receptor = D(3) dopamine receptor (Homo sapiens, UniProt P35462); assay: Selectivity interaction (Eurofins CEREP Diversity Profile (receptors and ion channels)) EUB0000279b DRD3; conditions: at 10 µM
[2] = system: Epidermal growth factor receptor (Homo sapiens), P00533 [UNDEFINED MUTATION]; assay: Selectivity interaction (KinomeScan (DiscoverX)) EUB0001049a EGFR; conditions: at 1 µM
[3] = biological target: T2, Dual specificity mitogen-activated protein kinase kinase 6 (Homo sapiens) (UniProt P52564); assay: Selectivity interaction (Upstate Kinase Profiler service (Millipore)) EUB0000056c MAP2K6; conditions: at 1 µM
T2 sequence (whole entry): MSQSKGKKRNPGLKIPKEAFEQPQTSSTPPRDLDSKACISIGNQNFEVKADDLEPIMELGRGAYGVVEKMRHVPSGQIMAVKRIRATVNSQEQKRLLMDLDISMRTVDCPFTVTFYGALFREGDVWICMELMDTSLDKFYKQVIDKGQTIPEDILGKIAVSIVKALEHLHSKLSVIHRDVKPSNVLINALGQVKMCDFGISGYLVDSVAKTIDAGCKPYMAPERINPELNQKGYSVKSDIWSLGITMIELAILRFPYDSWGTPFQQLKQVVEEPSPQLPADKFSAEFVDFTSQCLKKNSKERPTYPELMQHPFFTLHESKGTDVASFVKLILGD

[4] = biological target: T3, Inhibitor of nuclear factor kappa-B kinase subunit beta (Homo sapiens) (UniProt O14920); assay: Selectivity interaction (KinomeScan (DiscoverX)) EUB0001619a IKBKB; conditions: at 1 µM
T3 sequence (whole entry): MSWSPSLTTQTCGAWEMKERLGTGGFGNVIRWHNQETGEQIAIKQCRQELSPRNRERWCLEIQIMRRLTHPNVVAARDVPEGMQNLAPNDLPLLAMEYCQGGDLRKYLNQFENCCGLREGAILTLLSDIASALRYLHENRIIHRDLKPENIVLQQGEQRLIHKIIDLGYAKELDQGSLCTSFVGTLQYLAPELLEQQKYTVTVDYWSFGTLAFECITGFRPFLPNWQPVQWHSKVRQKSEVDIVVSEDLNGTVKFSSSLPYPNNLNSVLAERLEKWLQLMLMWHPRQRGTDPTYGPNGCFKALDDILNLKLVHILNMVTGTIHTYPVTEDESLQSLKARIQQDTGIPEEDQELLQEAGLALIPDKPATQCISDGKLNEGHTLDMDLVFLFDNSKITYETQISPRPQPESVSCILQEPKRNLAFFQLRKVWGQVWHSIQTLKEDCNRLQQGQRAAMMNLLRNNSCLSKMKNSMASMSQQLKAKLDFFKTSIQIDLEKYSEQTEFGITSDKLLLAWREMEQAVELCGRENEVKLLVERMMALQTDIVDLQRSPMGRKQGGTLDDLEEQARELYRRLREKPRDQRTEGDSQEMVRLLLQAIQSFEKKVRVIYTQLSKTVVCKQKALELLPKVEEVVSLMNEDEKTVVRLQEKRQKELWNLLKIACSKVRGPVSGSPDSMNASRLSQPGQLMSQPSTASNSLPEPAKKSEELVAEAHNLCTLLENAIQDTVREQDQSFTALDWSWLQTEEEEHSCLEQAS

[5] = biological target: Dual specificity tyrosine-phosphorylation-regulated kinase 1B (Homo sapiens, UniProt Q9Y463); assay: Selectivity interaction (KinomeScan (DiscoverX)) EUB0000618a DYRK1B; conditions: at 10 µM
[6] = biological target: Leucine-rich repeat serine/threonine-protein kinase 2 (Homo sapiens, UniProt Q5S007); assay: Selectivity interaction (Kinase panel (Invitrogen)) EUB0000639a LRRK2; conditions: at 200 nM
[7] = biological target: Mitogen-activated protein kinase 8 (Homo sapiens, UniProt P45983); assay: Selectivity interaction (Kinase panel (Invitrogen)) EUB0000639a MAPK8; conditions: at 200 nM
[8] = biological target: Tyrosine-protein kinase SYK (Homo sapiens, UniProt P43405); assay: Selectivity interaction (ActivX KiNativ screen (kinase selectivity in THP-1 cell lysates)) EUB0000639a SYK; format: subcellular; conditions: lysate

Chain of Epidermal growth factor receptor (Homo sapiens), P00533 [UNDEFINED MUTATION] (P00533 whole entry, looked up, change not shown): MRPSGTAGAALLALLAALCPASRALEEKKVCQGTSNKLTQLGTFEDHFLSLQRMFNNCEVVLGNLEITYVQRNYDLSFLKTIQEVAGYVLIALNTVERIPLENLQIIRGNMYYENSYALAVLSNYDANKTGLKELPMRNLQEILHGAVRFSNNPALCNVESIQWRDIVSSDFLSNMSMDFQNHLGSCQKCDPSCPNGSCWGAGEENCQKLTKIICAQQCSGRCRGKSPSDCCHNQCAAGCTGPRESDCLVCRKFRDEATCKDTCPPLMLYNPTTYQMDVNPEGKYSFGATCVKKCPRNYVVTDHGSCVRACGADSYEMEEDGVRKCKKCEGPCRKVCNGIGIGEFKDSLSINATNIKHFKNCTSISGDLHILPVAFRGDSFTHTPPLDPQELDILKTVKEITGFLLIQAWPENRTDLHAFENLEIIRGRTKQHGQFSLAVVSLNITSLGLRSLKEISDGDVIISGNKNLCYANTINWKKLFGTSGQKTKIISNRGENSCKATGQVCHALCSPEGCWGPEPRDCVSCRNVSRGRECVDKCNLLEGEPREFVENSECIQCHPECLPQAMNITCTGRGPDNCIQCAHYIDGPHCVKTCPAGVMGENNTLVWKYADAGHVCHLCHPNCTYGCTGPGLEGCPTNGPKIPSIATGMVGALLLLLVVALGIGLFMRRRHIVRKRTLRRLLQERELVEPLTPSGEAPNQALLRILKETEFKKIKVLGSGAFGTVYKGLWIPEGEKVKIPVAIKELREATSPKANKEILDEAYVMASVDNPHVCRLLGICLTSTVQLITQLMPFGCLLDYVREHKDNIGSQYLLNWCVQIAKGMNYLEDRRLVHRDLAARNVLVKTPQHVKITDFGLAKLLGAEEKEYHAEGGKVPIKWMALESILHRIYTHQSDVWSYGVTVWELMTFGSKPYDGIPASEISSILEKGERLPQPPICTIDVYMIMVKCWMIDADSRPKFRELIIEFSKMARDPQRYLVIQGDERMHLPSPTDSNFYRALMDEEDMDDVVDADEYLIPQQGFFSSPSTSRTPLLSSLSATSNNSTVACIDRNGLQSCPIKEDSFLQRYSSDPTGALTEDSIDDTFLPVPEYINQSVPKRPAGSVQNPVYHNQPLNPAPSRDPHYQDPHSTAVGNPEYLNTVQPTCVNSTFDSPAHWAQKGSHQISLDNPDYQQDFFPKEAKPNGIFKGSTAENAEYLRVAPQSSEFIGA
Chain of Mitogen-activated protein kinase 8 (P45983 whole entry): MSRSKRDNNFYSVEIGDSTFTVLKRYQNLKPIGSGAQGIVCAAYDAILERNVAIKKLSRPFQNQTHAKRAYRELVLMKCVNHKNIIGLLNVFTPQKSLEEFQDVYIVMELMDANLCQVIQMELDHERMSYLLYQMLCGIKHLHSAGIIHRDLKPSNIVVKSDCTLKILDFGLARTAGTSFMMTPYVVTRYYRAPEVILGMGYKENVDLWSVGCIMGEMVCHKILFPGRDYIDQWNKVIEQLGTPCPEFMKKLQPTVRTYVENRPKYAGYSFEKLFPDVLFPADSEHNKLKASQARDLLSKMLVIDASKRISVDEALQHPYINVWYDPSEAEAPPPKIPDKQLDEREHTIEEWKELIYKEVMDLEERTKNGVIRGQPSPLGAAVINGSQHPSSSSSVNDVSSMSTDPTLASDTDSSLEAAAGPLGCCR
Chain of Dual specificity tyrosine-phosphorylation-regulated kinase 1B (Q9Y463 whole entry, looked up): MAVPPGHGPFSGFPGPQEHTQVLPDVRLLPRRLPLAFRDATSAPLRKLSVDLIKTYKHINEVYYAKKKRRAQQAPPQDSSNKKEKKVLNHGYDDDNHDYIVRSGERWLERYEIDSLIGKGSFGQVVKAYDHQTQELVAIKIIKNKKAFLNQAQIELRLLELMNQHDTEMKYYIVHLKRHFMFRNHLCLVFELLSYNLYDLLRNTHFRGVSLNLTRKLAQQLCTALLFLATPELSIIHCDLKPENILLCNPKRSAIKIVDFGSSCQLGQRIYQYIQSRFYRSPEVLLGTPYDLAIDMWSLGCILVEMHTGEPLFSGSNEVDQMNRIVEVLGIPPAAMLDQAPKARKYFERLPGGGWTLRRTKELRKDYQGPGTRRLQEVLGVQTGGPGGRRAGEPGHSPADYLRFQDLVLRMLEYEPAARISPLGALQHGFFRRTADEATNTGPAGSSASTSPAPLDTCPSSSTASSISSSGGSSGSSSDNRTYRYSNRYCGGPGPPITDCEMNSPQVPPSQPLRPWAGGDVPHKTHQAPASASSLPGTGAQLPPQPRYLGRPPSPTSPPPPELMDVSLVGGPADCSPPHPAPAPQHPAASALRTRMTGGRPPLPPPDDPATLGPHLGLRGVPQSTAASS
Chain of D(3) dopamine receptor (P35462 whole entry): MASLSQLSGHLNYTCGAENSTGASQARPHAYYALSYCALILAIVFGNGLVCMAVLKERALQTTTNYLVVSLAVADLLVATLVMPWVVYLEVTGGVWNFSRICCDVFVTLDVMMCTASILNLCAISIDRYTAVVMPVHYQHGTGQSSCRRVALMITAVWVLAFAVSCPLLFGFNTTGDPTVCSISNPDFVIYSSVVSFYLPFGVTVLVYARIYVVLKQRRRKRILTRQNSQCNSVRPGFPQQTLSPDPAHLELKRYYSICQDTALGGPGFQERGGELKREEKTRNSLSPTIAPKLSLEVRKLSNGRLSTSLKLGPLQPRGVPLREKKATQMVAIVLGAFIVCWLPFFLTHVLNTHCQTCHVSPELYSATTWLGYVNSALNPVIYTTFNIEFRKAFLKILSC

## Cc1cc([C@@H](C)Nc2ccccc2C(=O)O)c2nc(N3CCOCC3)cc(=O)n2c1 [AZD-6482]
[1]
  % of control: 100%

## CC(=O)c1cc(-c2ccccc2OCC2CC2)c2ncccn12
D(3) dopamine receptor
  % of control: 81%

## COc1cc(Nc2nc(C)cc(-c3cnn4nc(OC)ccc34)n2)cc(C(F)(F)F)c1
[2]
  % of control: 100%

## Cc1ccc(-c2ccc3c(ccc4sc5c(c43)NC[C@@H](C)NC5=O)n2)cn1
[3]
  % of inhibition: 2%

## N#Cc1cccc(-c2c[nH]c3ncnc(N4CCOCC4)c23)c1
[4]
  % of control: 90%

## O[C@H]1CC[C@H](Nc2ncc3nc(Nc4c(F)cc(F)cc4F)n([C@H]4CCOC4)c3n2)CC1
[5]
  % of control: 100%

## CC[C@@H]1[C@H](F)C(=O)N[C@@H]1COc1nccc2cc(C(N)=O)c(OC)cc12 [ZIMLOVISERTIB]
[6]
  % of inhibition: 85.1%
[7]
  % of inhibition: -0.665%
[8]; at 0.01 µM
  % of inhibition: 3.2%
[8]; at 0.04 µM
  % of inhibition: 14.7%
[8]; at 0.2 µM
  % of inhibition: 7.1%
[8]; at 1 µM
  % of inhibition: 16.1%
[8]; at 5 µM
  % of inhibition: 2.5%
